The values that follow come from publication PMC5218480 (PLoS ONE, 2017).

The experiment concerns MV-4-11 cells. Description: Gene expression microarray analysis (Affymetrix PrimeView) and GSEA. The class given is cell-based, human. More on the design: RFU PODN (11730768_x_at) / Fold change /veh PODN (11730768_x_at) / RFU LINC00158 (11744669_a_at) / Fold change /veh LINC00158 (11744669_a_at) / RFU DUSP10 (11751237_a_at) / Fold change /veh DUSP10 (11751237_a_at) / RFU ID3 (11757404_x_at) / Fold change /veh ID3 (11757404_x_at) / RFU PLEKHG5 (11737974_s_at) / Fold change /veh PLEKHG5 (11737974_s_at) / RFU LRRC4B (11730491_at) / Fold change /veh LRRC4B (11730491_at) / RFU GIMAP4 (11747438_a_at) / Fold change /veh GIMAP4 (11747438_a_at) / RFU KRT8 (11758183_x_at) / Fold change /veh KRT8 (11758183_x_at) / RFU CNN1 (11734310_a_at) / Fold change /veh CNN1 (11734310_a_at) / RFU VPS37D (11726825_at) / Fold change /veh VPS37D (11726825_at) / RFU C10orf10 (11716522_x_at) / Fold change /veh C10orf10 (11716522_x_at) / RFU KIR2DL2 /// KIR2DL4 /// KIR2DL5A /// KIR2DL5B /// KIR2DS1 /// KIR2DS2 /// KIR2DS3 /// KIR2DS4 /// KIR3DL3 /// KIR3DL3 /// KIR3DS1 (11738374_at) / Fold change /veh KIR2DL2 /// KIR2DL4 /// KIR2DL5A /// KIR2DL5B /// KIR2DS1 /// KIR2DS2 /// KIR2DS3 /// KIR2DS4 /// KIR3DL3 /// KIR3DL3 /// KIR3DS1 (11738374_at) / RFU C1QL1 (11718748_at) / Fold change /veh C1QL1 (11718748_at) / RFU TMPRSS4 (11747572_a_at) / Fold change /veh TMPRSS4 (11747572_a_at) / RFU HAMP (11756126_x_at) / Fold change /veh HAMP (11756126_x_at) / RFU RNFT2 (11725882_a_at) / Fold change /veh RNFT2 (11725882_a_at) / RFU NR4A2 (11747474_a_at) / Fold change /veh NR4A2 (11747474_a_at) / RFU ABCC12 (11746883_a_at) / Fold change /veh ABCC12 (11746883_a_at) / RFU TMEM136 (11760407_x_at) / Fold change /veh TMEM136 (11760407_x_at) / RFU CLDN22 /// WWC2 (11732394_at) / Fold change /veh CLDN22 /// WWC2 (11732394_at) / RFU HLA-DPB1 (11760878_x_at) / Fold change /veh HLA-DPB1 (11760878_x_at) / RFU SPINT1 (11716480_a_at) / Fold change /veh SPINT1 (11716480_a_at) / RFU GAP43 (11754022_s_at) / Fold change /veh GAP43 (11754022_s_at) / RFU A4GNT (11735810_at) / Fold change /veh A4GNT (11735810_at) / RFU PRB3 (11715151_x_at) / Fold change /veh PRB3 (11715151_x_at) / RFU TUBB4B (11761932_at) / Fold change /veh TUBB4B (11761932_at) / RFU CAPN14 (11732068_a_at) / Fold change /veh CAPN14 (11732068_a_at) / RFU TMCC2 (11721928_a_at) / Fold change /veh TMCC2 (11721928_a_at) / RFU IRGQ (11745062_a_at) / Fold change /veh IRGQ (11745062_a_at) / RFU FAM174B (11720279_a_at) / Fold change /veh FAM174B (11720279_a_at) / RFU TMPRSS4 (11748680_a_at) / Fold change /veh TMPRSS4 (11748680_a_at) / RFU FAM212B (11763350_a_at) / Fold change /veh FAM212B (11763350_a_at) / RFU PLEKHG5 (11743358_a_at) / Fold change /veh PLEKHG5 (11743358_a_at) / RFU ZSCAN30 (11745921_a_at) / Fold change /veh ZSCAN30 (11745921_a_at) / RFU CMKLR1 (11741424_a_at) / Fold change /veh CMKLR1 (11741424_a_at) / RFU LOC101060620 /// MAPK8IP1 (11723275_at) / Fold change /veh LOC101060620 /// MAPK8IP1 (11723275_at) / RFU SPTSSB (11747773_x_at) / Fold change /veh SPTSSB (11747773_x_at) / RFU PRSS12 (11739890_at) / Fold change /veh PRSS12 (11739890_at) / RFU BIN1 (11741810_x_at) / Fold change /veh BIN1 (11741810_x_at) / RFU WNT11 (11732464_a_at) / Fold change /veh WNT11 (11732464_a_at) / RFU C10orf10 (11716521_a_at) / Fold change /veh C10orf10 (11716521_a_at) / RFU C5orf56 (11738089_at) / Fold change /veh C5orf56 (11738089_at) / RFU CYB561 (11721691_x_at) / Fold change /veh CYB561 (11721691_x_at) / RFU ANKRD19P (11752326_a_at) / Fold change /veh ANKRD19P (11752326_a_at) / RFU OR2T12 /// OR2T33 /// OR2T8 (11738714_s_at) / Fold change /veh OR2T12 /// OR2T33 /// OR2T8 (11738714_s_at) / RFU VCAN (11748164_a_at) / Fold change /veh VCAN (11748164_a_at) / RFU JSRP1 (11732532_at) / Fold change /veh JSRP1 (11732532_at) / RFU KRTAP10-11 (11738290_x_at) / Fold change /veh KRTAP10-11 (11738290_x_at) / RFU MYO3A (11730013_a_at) / Fold change /veh MYO3A (11730013_a_at) / RFU EBF3 (11725865_a_at) / Fold change /veh EBF3 (11725865_a_at) / RFU CAMK2N1 (11719241_x_at) / Fold change /veh CAMK2N1 (11719241_x_at) / RFU C5orf56 (11738088_a_at) / Fold change /veh C5orf56 (11738088_a_at) / RFU OLFML3 (11715873_a_at) / Fold change /veh OLFML3 (11715873_a_at) / RFU LOC100653217 /// NTM (11731650_a_at) / Fold change /veh LOC100653217 /// NTM (11731650_a_at) / RFU MAPK11 (11762145_a_at) / Fold change /veh MAPK11 (11762145_a_at) / RFU FIZ1 (11724087_x_at) / Fold change /veh FIZ1 (11724087_x_at) / RFU OASL (11726364_x_at) / Fold change /veh OASL (11726364_x_at) / RFU SOX15 (11748057_x_at) / Fold change /veh SOX15 (11748057_x_at) / RFU CD79A (11719716_a_at) / Fold change /veh CD79A (11719716_a_at) / RFU HIST1H1D (11736915_at) / Fold change /veh HIST1H1D (11736915_at) / RFU CASKIN2 (11723855_a_at) / Fold change /veh CASKIN2 (11723855_a_at) / RFU LOC730098 (11760151_x_at) / Fold change /veh LOC730098 (11760151_x_at) / RFU OR4N2 (11742367_at) / Fold change /veh OR4N2 (11742367_at) / RFU PRRT2 (11749266_a_at) / Fold change /veh PRRT2 (11749266_a_at) / RFU SNX32 (11753110_a_at) / Fold change /veh SNX32 (11753110_a_at) / RFU CDHR5 (11726645_a_at) / Fold change /veh CDHR5 (11726645_a_at) / RFU RCAN1 (11760418_a_at) / Fold change /veh RCAN1 (11760418_a_at) / RFU FAM167A (11723789_a_at) / Fold change /veh FAM167A (11723789_a_at) / RFU FAM26E (11764081_at) / Fold change /veh FAM26E (11764081_at) / RFU ISYNA1 (11749810_s_at) / Fold change /veh ISYNA1 (11749810_s_at) / RFU ACY1 (11761880_at) / Fold change /veh ACY1 (11761880_at) / RFU 11764098_at / Fold change /veh 11764098_at / RFU SAMD14 (11745864_x_at) / Fold change /veh SAMD14 (11745864_x_at) / RFU NPB (11741838_a_at) / Fold change /veh NPB (11741838_a_at) / RFU TMPRSS6 (11731388_a_at) / Fold change /veh TMPRSS6 (11731388_a_at) / RFU KRTAP10-2 (11738614_at) / Fold change /veh KRTAP10-2 (11738614_at) / RFU ARHGAP8 /// PRR5-ARHGAP8 (11727945_x_at) / Fold change /veh ARHGAP8 /// PRR5-ARHGAP8 (11727945_x_at) / RFU KRTAP5-7 /// NADSYN1 (11734609_at) / Fold change /veh KRTAP5-7 /// NADSYN1 (11734609_at) / RFU RASL12 (11751679_a_at) / Fold change /veh RASL12 (11751679_a_at) / RFU CDKN2B (11736163_a_at) / Fold change /veh CDKN2B (11736163_a_at) / RFU PRF1 (11729649_at) / Fold change /veh PRF1 (11729649_at) / RFU, ZNF638 /// ZNF638-IT1 / Fold change vs veh, ZNF638 /// ZNF638-IT1 / RFU, PANK3 / Fold change vs veh, PANK3 / RFU, SH3YL1 / Fold change vs veh, SH3YL1 / RFU, ZEB2 / Fold change vs veh, ZEB2 / RFU, NRIP1 / Fold change vs veh, NRIP1 / RFU, PTTG1IP / Fold change vs veh, PTTG1IP / RFU, CAPN2 / Fold change vs veh, CAPN2 / RFU, MED14 / Fold change vs veh, MED14 / RFU, SNORA58 / Fold change vs veh, SNORA58 / RFU, C1orf63 / Fold change vs veh, C1orf63 / RFU, LRRFIP1 / Fold change vs veh, LRRFIP1 / RFU, NDUFAF7 / Fold change vs veh, NDUFAF7 / RFU, SLC12A2 / Fold change vs veh, SLC12A2 / RFU, IBTK / Fold change vs veh, IBTK / RFU, ESF1 / Fold change vs veh, ESF1 / Fold change vs veh, TMEM50B / RFU, TAOK1 / Fold change vs veh, TAOK1 / RFU, ACBD3 / Fold change vs veh, ACBD3 / RFU, TMA16 / Fold change vs veh, TMA16 / RFU, RWDD3 / Fold change vs veh, RWDD3 / RFU, BCAT1 / Fold change vs veh, BCAT1 / RFU, EDEM3 / Fold change vs veh, EDEM3 / RFU, TMEM33 / Fold change vs veh, TMEM33 / RFU, WDR75 / Fold change vs veh, WDR75 / RFU, AHCTF1 / Fold change vs veh, AHCTF1 / RFU, TFRC / Fold change vs veh, TFRC / RFU, ZDHHC17 / Fold change vs veh, ZDHHC17 / RFU, NOM1 / Fold change vs veh, NOM1 / RFU, ARL8B / Fold change vs veh, ARL8B / RFU, ZBTB11 / Fold change vs veh, ZBTB11 / RFU, TAMM41 / Fold change vs veh, TAMM41 / RFU, KIAA1704 /// LOC100996395 / Fold change vs veh, KIAA1704 /// LOC100996395 / RFU, ING1 / Fold change vs veh, ING1 / RFU, TRMT61B / Fold change vs veh, TRMT61B / RFU, FUBP3 / Fold change vs veh, FUBP3 / RFU, TP53 / Fold change vs veh, TP53 / RFU, TNKS2 / Fold change vs veh, TNKS2 / RFU, ZFP14 / Fold change vs veh, ZFP14 / RFU, ACTR2 / Fold change vs veh, ACTR2 / RFU, PPP3R1 / Fold change vs veh, PPP3R1 / RFU, PIK3R1 / Fold change vs veh, PIK3R1 / RFU, HNRNPA1 / Fold change vs veh, HNRNPA1 / RFU, RNF170 / Fold change vs veh, RNF170 / RFU, ZNF28 / Fold change vs veh, ZNF28 / RFU, RNGTT / Fold change vs veh, RNGTT / RFU, OGT / Fold change vs veh, OGT / RFU, BRD1 / Fold change vs veh, BRD1 / RFU, MARS / Fold change vs veh, MARS / RFU, ZNF655 / Fold change vs veh, ZNF655 / RFU, FAHD1 / Fold change vs veh, FAHD1 / RFU, BDP1 / Fold change vs veh, BDP1 / RFU, LRRCC1 / Fold change vs veh, LRRCC1 / RFU, ARID1A / Fold change vs veh, ARID1A / RFU, ZNF146 / Fold change vs veh, ZNF146 / RFU, ZNF330 / Fold change vs veh, ZNF330 / RFU, GPN3 / Fold change vs veh, GPN3 / RFU, C9orf123 / Fold change vs veh, C9orf123 / RFU, N4BP2L2 / Fold change vs veh, N4BP2L2 / RFU, ARFIP1 / Fold change vs veh, ARFIP1 / RFU, FAM179B / Fold change vs veh, FAM179B / RFU, BCL10 / Fold change vs veh, BCL10 / RFU, UHRF1BP1L / Fold change vs veh, UHRF1BP1L / RFU, BET1 / Fold change vs veh, BET1 / RFU, CNOT2 / Fold change vs veh, CNOT2 / RFU, ZNF268 / Fold change vs veh, ZNF268 / Fold change vs veh, ZNF507 / RFU, DGCR2 / Fold change vs veh, DGCR2 / RFU, WDSUB1 / Fold change vs veh, WDSUB1 / Fold change vs veh, HSP90B1 /// MIR3652 / RFU, ADSS / Fold change vs veh, ADSS / RFU, GK / Fold change vs veh, GK / RFU, ZNF148 / Fold change vs veh, ZNF148 / RFU, TAF9 / Fold change vs veh, TAF9 / RFU, SLC1A5 / Fold change vs veh, SLC1A5 / RFU, SLMO2 / Fold change vs veh, SLMO2 / RFU, ABCC4 / Fold change vs veh, ABCC4 / RFU, LOC101060439 /// RAP1B / Fold change vs veh, LOC101060439 /// RAP1B / RFU, RFX7 / Fold change vs veh, RFX7 / RFU, GTPBP10 / Fold change vs veh, GTPBP10 / RFU, CNEP1R1 / Fold change vs veh, CNEP1R1 / RFU, BIVM-ERCC5 /// ERCC5 / Fold change vs veh, BIVM-ERCC5 /// ERCC5 / RFU, ILF3 / Fold change vs veh, ILF3 / RFU 11762660_at / Fold change /veh 11762660_at / RFU VCAN (11757783_s_at) / Fold change /veh VCAN (11757783_s_at) / RFU DDX43 (11728927_at) / Fold change /veh DDX43 (11728927_at) / RFU KRT8 (11758188_x_at) / Fold change /veh KRT8 (11758188_x_at) / RFU NKD1 (11759106_at) / Fold change /veh NKD1 (11759106_at) / RFU SRD5A1 (11742802_a_at) / Fold change /veh SRD5A1 (11742802_a_at) / RFU TPSAB1 /// TPSB2 (11721975_s_at) / Fold change /veh TPSAB1 /// TPSB2 (11721975_s_at) / RFU GSTM3 (11746129_a_at) / Fold change /veh GSTM3 (11746129_a_at) / RFU IL23R (11737362_x_at) / Fold change /veh IL23R (11737362_x_at) / RFU TMEM51 (11727254_a_at) / Fold change /veh TMEM51 (11727254_a_at) / RFU PIWIL2 (11732686_x_at) / Fold change /veh PIWIL2 (11732686_x_at) / RFU ORM1 (11744905_x_at) / Fold change /veh ORM1 (11744905_x_at) / RFU CCDC152 (11743942_at) / Fold change /veh CCDC152 (11743942_at) / RFU ECM1 (11717891_a_at) / Fold change /veh ECM1 (11717891_a_at) / RFU IL23R (11748794_a_at) / Fold change /veh IL23R (11748794_a_at) / RFU TNFAIP8L3 (11732012_x_at) / Fold change /veh TNFAIP8L3 (11732012_x_at) / RFU MBOAT4 (11741988_at) / Fold change /veh MBOAT4 (11741988_at) / RFU 11764193_at / Fold change /veh 11764193_at / RFU TMEM53 (11763286_at) / Fold change /veh TMEM53 (11763286_at) / RFU MAGEB2 (11727129_at) / Fold change /veh MAGEB2 (11727129_at) / RFU TMEM200A (11744735_a_at) / Fold change /veh TMEM200A (11744735_a_at) / RFU CCDC152 (11751479_a_at) / Fold change /veh CCDC152 (11751479_a_at) / RFU FAM211A (11726209_a_at) / Fold change /veh FAM211A (11726209_a_at) / RFU RGS16 (11746705_a_at) / Fold change /veh RGS16 (11746705_a_at) / RFU VCAN (11755009_s_at) / Fold change /veh VCAN (11755009_s_at) / RFU RHOB (11743442_s_at) / Fold change /veh RHOB (11743442_s_at) / RFU RGS16 (11720943_a_at) / Fold change /veh RGS16 (11720943_a_at) / RFU RGS16 (11720944_at) / Fold change /veh RGS16 (11720944_at) / RFU, VPS4B / Fold change vs veh, VPS4B / RFU, CREB1 / Fold change vs veh, CREB1 / RFU, DNAJC13 / Fold change vs veh, DNAJC13 / RFU, GNAQ / Fold change vs veh, GNAQ / RFU, CDK5R1 / Fold change vs veh, CDK5R1 / RFU, ZRANB3 / Fold change vs veh, ZRANB3 / RFU, CUL4A / Fold change vs veh, CUL4A / RFU, CCNY / Fold change vs veh, CCNY / RFU, UFL1 / Fold change vs veh, UFL1 / RFU, COG3 / Fold change vs veh, COG3 / RFU, DIAPH2 / Fold change vs veh, DIAPH2 / RFU, SKA2 / Fold change vs veh, SKA2 / RFU, AFF3 / Fold change vs veh, AFF3 / RFU, LMF1 / Fold change vs veh, LMF1 / RFU, IPO11 / Fold change vs veh, IPO11 / RFU, DFFB / Fold change vs veh, DFFB / RFU, FOXP1 / Fold change vs veh, FOXP1 / RFU, CARD8 / Fold change vs veh, CARD8 / RFU, STRN3 / Fold change vs veh, STRN3 / RFU, ADK / Fold change vs veh, ADK / RFU, RASSF2 / Fold change vs veh, RASSF2 / RFU, WIPF1 / Fold change vs veh, WIPF1 / RFU, LARP1B / Fold change vs veh, LARP1B / RFU, RASA1 / Fold change vs veh, RASA1 / RFU, RB1 / Fold change vs veh, RB1 / RFU, PPFIA1 / Fold change vs veh, PPFIA1 / RFU, MAT2A / Fold change vs veh, MAT2A / RFU, CCT5 / Fold change vs veh, CCT5 / RFU, WDR92 / Fold change vs veh, WDR92 / RFU, CUX1 / Fold change vs veh, CUX1 / RFU, TTC7A / Fold change vs veh, TTC7A / RFU, TMEM135 / Fold change vs veh, TMEM135 / RFU, DEPTOR / Fold change vs veh, DEPTOR / RFU, CPM / Fold change vs veh, CPM / RFU, DNAJB6 / Fold change vs veh, DNAJB6 / RFU, CACNA2D3 / Fold change vs veh, CACNA2D3 / RFU, DTX4 / Fold change vs veh, DTX4 / RFU, TFCP2 / Fold change vs veh, TFCP2 / RFU, GMCL1 /// GMCL1P1 / Fold change vs veh, GMCL1 /// GMCL1P1 / RFU, AEBP2 / Fold change vs veh, AEBP2 / RFU, SNHG1 /// SNORD22 /// SNORD25 /// SNORD26 /// SNORD27 /// SNORD28 /// SNORD29 /// SNORD31 / Fold change vs veh, SNHG1 /// SNORD22 /// SNORD25 /// SNORD26 /// SNORD27 /// SNORD28 /// SNORD29 /// SNORD31 / Fold change (Aza/veh), C12orf56 (ProbeSet 11735607_a_at) / Fold change (ACY-1035/veh), C12orf56 (ProbeSet 11735607_a_at) / Fold change (Aza/veh), FGFR1OP (ProbeSet 11751329_s_at) / Fold change (ACY-1035/veh), FGFR1OP (ProbeSet 11751329_s_at) / Fold change (Aza/veh), VPS36 (ProbeSet 11739960_a_at) / Fold change (ACY-1035/veh), VPS36 (ProbeSet 11739960_a_at) / RFU SYPL1 (11715823_x_at) / Fold change /veh SYPL1 (11715823_x_at) / RFU IGFBP7 (11715501_s_at) / Fold change /veh IGFBP7 (11715501_s_at) / RFU REEP3 (11722064_at) / Fold change /veh REEP3 (11722064_at) / RFU IGLL1 (11728026_x_at) / Fold change /veh IGLL1 (11728026_x_at): dose or concentration left out as unconfirmed. The settings on record: MV-4-11 cells, 48 hours.

On to `Nc1ccc(-c2cccs2)cc1NC(=O)c1ccc2c(c1)cc(C1CC1)n2CCN1CCOCC1` [ACY-1035], for which the “RFU GIMAP4 (11747438_a_at)” value stood at 6.21 RFU.
